Data published in patent US9102591B2, “Benzamides” (H. Lundbeck A/S, priority 2012, dated 2015).

Target: P2X7 receptor (Homo sapiens (Human), UniProt Q99572)
Assay: P2X7 FLIPR assay (BzATP-stimulated calcium fluorescence, antagonist IC50)
Assay type: cell-based
Procedure, shortened: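 Cells expressing P2X7 receptor (human, rat or mouse), plated 24 hours earlier in low-serum medium, loaded with Fluo-4 NW dye (30 min 37° C, 30 min room temperature).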

P2X7 receptor, sequence (Q99572 whole entry): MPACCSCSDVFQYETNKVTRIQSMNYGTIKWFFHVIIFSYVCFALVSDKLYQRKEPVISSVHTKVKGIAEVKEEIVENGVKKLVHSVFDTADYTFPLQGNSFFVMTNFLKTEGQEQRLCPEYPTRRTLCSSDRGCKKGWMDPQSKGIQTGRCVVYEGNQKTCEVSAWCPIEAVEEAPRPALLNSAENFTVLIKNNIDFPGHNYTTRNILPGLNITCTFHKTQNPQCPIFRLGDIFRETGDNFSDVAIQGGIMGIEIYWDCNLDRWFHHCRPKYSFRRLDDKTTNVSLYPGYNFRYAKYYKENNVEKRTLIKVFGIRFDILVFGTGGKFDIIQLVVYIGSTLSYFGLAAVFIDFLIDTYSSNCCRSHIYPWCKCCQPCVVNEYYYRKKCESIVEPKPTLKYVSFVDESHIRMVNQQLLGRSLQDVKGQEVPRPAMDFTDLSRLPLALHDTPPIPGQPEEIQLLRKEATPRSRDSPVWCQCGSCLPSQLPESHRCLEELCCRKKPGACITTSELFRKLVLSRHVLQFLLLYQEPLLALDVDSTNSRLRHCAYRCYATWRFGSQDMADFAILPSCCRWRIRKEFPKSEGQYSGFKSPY

Row | SMILES | IC50 [nM]
1 | Cc1ncc(C(CNC(=O)c2cccc(Cl)c2Cl)C2CCC(F)(F)CC2)cn1 (stereo not drawn) [2,3-dichloro-N-[2-(4,4-difluorocyclohexyl)-2-(2-methylpyrimidin-5-yl)ethyl]benzamide] | 6.2
2 | O=C(NCC(c1ccc(Cl)cc1)C1CCOCC1)c1cccc(Cl)c1Cl (stereo not drawn) [2,3-dichloro-N-[2-(4-chlorophenyl)-2-tetrahydropyran-4-yl-ethyl]benzamide] | 1.6
3 | O=C(NCC(c1ccncc1)c1cnc(C(F)(F)F)nc1)c1cccc(Cl)c1Cl (stereo not drawn) [2,3-dichloro-N-[2-(4-pyridyl)-2-[2-(trifluoromethyl)pyrimidin-5-yl]ethyl]benzamide] | 6.2
4 | O=C(NCC(c1ccncc1)c1ccc(C(F)(F)F)nc1)c1cccc(Cl)c1Cl (stereo not drawn) [2,3-dichloro-N-[2-(4-pyridyl)-2-[6-(trifluoromethyl)-3-pyridyl]ethyl]benzamide] | 200
5 | O=C(NCC(CC1(C(F)F)CC1)c1ccc(C2CC2)nc1)c1cccc(Cl)c1Cl (stereo not drawn) [2,3-dichloro-N-[2-(6-cyclopropyl-3-pyridyl)-3-[1-(difluoromethyl)cyclopropyl]propyl]benzamide] | 0.76
6 | O=C(NCC(CC1(C(F)(F)F)CC1)c1ccc(C2CC2)nc1)c1cccc(Cl)c1Cl (stereo not drawn) [2,3-dichloro-N-[2-(6-cyclopropyl-3-pyridyl)-3-[1-(trifluoromethyl)cyclopropyl]propyl]benzamide] | 15
7 | O=C(NCC(CC1(F)CC1)c1cnc(C(F)(F)F)nc1)c1cccc(Cl)c1Cl (stereo not drawn) [2,3-dichloro-N-[3-(1-fluorocyclopropyl)-2-[2-(trifluoromethyl)pyrimidin-5-yl]propyl]benzamide] | 9.3
8 | O=C(NCC(CC1(F)CC1)c1ccc(C(F)(F)F)nc1)c1cccc(Cl)c1Cl (stereo not drawn) [2,3-dichloro-N-[3-(1-fluorocyclopropyl)-2-[6-(trifluoromethyl)-3-pyridyl]propyl]benzamide] | 3.7
9 | O=C(NCC(CC1(C(F)F)CC1)c1ccc(C(F)(F)F)nc1)c1cccc(Cl)c1Cl (stereo not drawn) [2,3-dichloro-N-[3-[1-(difluoromethyl)cyclopropyl]-2-[6-(trifluoromethyl)-3-pyridyl]propyl]benzamide] | 1.6
10 | O=C(NCC(CC1(C(F)(F)F)CC1)c1ccc(C(F)(F)F)nc1)c1cccc(Cl)c1Cl (stereo not drawn) [2,3-dichloro-N-[3-[1-(trifluoromethyl)cyclopropyl]-2-[6-(tri] [2,3-dichloro-N-[3-[1-(trifluoromethyl)cyclopropyl]-2-[6-(trifluoromethyl)-3-pyridyl]propyl]benzamide] | 19
11 | Cc1ccc(C(CNC(=O)c2cccc(Cl)c2Cl)CC2CC2)c(C)n1 (stereo not drawn) [2,3-dichloro-N-[3-cyclopropyl-2-(2,6-dimethyl-3-pyridyl)propyl]benzamide] | 1300
12 | O=C(NCC(CC1CC1)c1cnc(C(F)(F)F)nc1)c1cccc(Cl)c1Cl (stereo not drawn) [2,3-dichloro-N-[3-cyclopropyl-2-[2-(trifluoromethyl)pyrimidi] [2,3-dichloro-N-[3-cyclopropyl-2-[2-(trifluoromethyl)pyrimidin-5-yl]propyl]benzamide] | 0.88
13 | O=C(NCC(CC1CC1)c1ccc(C(F)(F)F)nc1)c1cccc(Cl)c1Cl (stereo not drawn) [2,3-dichloro-N-[3-cyclopropyl-2-[6-(trifluoromethyl)-3-pyrid] [2,3-dichloro-N-[3-cyclopropyl-2-[6-(trifluoromethyl)-3-pyridyl]propyl]benzamide] | 0.55
14 | COCCC(CNC(=O)c1cccc(Cl)c1Cl)c1cnc(C(F)(F)F)nc1 (stereo not drawn) [2,3-dichloro-N-[4-methoxy-2-[2-(trifluoromethyl)pyrimidin-5-yl]butyl]benzamide] | 2200
15 | Cc1ncc(C2(CNC(=O)c3cccc(Cl)c3Cl)CCC(F)(F)CC2)cn1 [2,3-dichloro-N-[[4,4-difluoro-1-(2-methylpyrimidin-5-yl)cyclohexyl]methyl]benzamide] | 8.6
16 | O=C(NCC1(c2ccc(F)nc2)CCC(F)(F)CC1)c1cccc(Cl)c1Cl [2,3-dichloro-N-[[4,4-difluoro-1-(6-fluoro-3-pyridyl)cyclohexyl]methyl]benzamide] | 0.28
17 | O=C(NCC1(c2cnc(C(F)(F)F)nc2)CCC(F)(F)CC1)c1cccc(Cl)c1Cl [2,3-dichloro-N-[[4,4-difluoro-1-[2-(trifluoromethyl)pyrimidin-5-yl]cyclohexyl]methyl]benzamide] | 0.95
18 | CC(C)(O)c1ccc(C2(CNC(=O)c3cccc(Cl)c3Cl)CCC(F)(F)CC2)cn1 [2,3-dichloro-N-[[4,4-difluoro-1-[6-(1-hydroxy-1-methyl-ethyl)-3-pyridyl]cyclohexyl]methyl]benzamide] | 23
19 | O=C(NCC1(c2cnc(C(F)(F)F)nc2)CCOCC1)c1cccc(Cl)c1Cl [2,3-dichloro-N-[[4-[2-(trifluoromethyl)pyrimidin-5-yl]tetrahydropyran-4-yl]methyl]benzamide] | 250
20 | O=C(NCC(c1ccccc1)c1ccc(C(F)(F)F)nc1)c1ccc(Cl)cc1Cl (stereo not drawn) [2,4-dichloro-N-(2-phenyl-2-(6-(trifluoromethyl)pyridin-3-yl)ethyl)benzamide] | 25
21 | O=C(NCC(c1ccccc1)c1ccnnc1)c1ccc(Cl)cc1Cl (stereo not drawn) [2,4-dichloro-N-(2-phenyl-2-pyridazin-4-yl-ethyl)benzamide] | 720
22 | O=C(NCC1(c2ccc(F)nc2)CCC(F)(F)CC1)c1cc(Cl)ccc1Cl [2,5-dichloro-N-((4,4-difluoro-1-(6-fluoropyridin-3-yl)cyclohexyl)methyl)benzamide] | 2.3
23 | O=C(NCC1(c2ccc(Cl)cc2)CCOCC1)c1c(Cl)cccc1Cl [2,6-Dichloro-N-[4-(4-chloro-phenyl)-tetrahydro-pyran-4-ylmethyl]-benzamide] | 360
24 | O=C(NCC(CC1CC1)c1cnc(C(F)(F)F)nc1)c1c(Cl)cccc1Cl (stereo not drawn) [2,6-dichloro-N-(3-cyclopropyl-2-(2-(trifluoromethyl)pyrimidi] [2,6-dichloro-N-(3-cyclopropyl-2-(2-(trifluoromethyl)pyrimidin-5-yl)propyl)benzamide] | 5.1
25 | O=C(NCC(CC1CC1)c1ccc(C(F)(F)F)nc1)c1c(Cl)cccc1Cl (stereo not drawn) [2,6-dichloro-N-(3-cyclopropyl-2-(6-(trifluoromethyl)pyridin-] [2,6-dichloro-N-(3-cyclopropyl-2-(6-(trifluoromethyl)pyridin-3-yl)propyl)benzamide] | 0.71
26 | Cc1ccc(Cl)c(C(=O)NCC2(c3cccnc3)CCCC2)c1 [2-Chloro-5-methyl-N-(1-pyridin-3-yl-cyclopentylmethyl)-benzamide] | 2900
27 | Cc1ccc(Cl)c(C(=O)NCC2(c3ccc(C)nc3)CCOCC2)c1 [2-Chloro-5-methyl-N-[4-(6-methyl-pyridin-3-yl)-tetrahydro-pyran-4-ylmethyl]-benzamide] | 3400
28 | Cc1ccccc1C(=O)NCC1(c2ccccc2)CCN(C)CC1 [2-Methyl-N-(1-methyl-4-phenyl-piperidin-4-ylmethyl)-benzamide] | 64

Further lines, results first:

Row | IC50 [nM] | SMILES
29 | 190 | COc1ccc(C2(CNC(=O)c3cc(C)ccc3Cl)CCCC2)cc1 [2-Chloro-N-[1-(4-methoxy-phenyl)-cyclopentylmethyl]-5-methyl-benzamide]
30 | 62 | Cc1ccc(Cl)c(C(=O)NCC2(c3ccc(Cl)cc3)CCOCC2)c1 [2-Chloro-N-[4-(4-chloro-phenyl)-tetrahydro-pyran-4-ylmethyl]-5-methyl-benzamide]
31 | 800 | O=C(NCC1(c2ccc(Cl)cc2)CCOCC1)c1ccccc1Cl [2-Chloro-N-[4-(4-chloro-phenyl)-tetrahydro-pyran-4-ylmethyl]-benzamide]
32 | 3600 | Cc1ccccc1C(=O)NCC1(c2cccnc2)CCCC1 [2-Methyl-N-(1-pyridin-3-yl-cyclopentylmethyl)-benzamide]
33 | 29 | Cc1ccc(C(CNC(=O)c2ccccc2C)CC(C)C)cn1 (stereo not drawn) [2-Methyl-N-[4-methyl-2-(6-methyl-pyridin-3-yl)-pentyl]-benzamide]
34 | 15 | Cc1ncc(C2(C(C)NC(=O)c3cccc(F)c3Cl)CCOCC2)cn1 (stereo not drawn) [2-chloro-3-fluoro-N-[1-[4-(2-methylpyrimidin-5-yl)tetrahydropyran-4-yl]ethyl]benzamide]
35 | 860 | Cc1ncc(C(CNC(=O)c2cccc(F)c2Cl)c2ccncc2)cn1 (stereo not drawn) [2-chloro-3-fluoro-N-[2-(2-methylpyrimidin-5-yl)-2-(4-pyridyl)ethyl]benzamide]
36 | 210 | Cc1ncc(C(CNC(=O)c2cccc(F)c2Cl)C2CCOCC2)cn1 (stereo not drawn) [2-chloro-3-fluoro-N-[2-(2-methylpyrimidin-5-yl)-2-tetrahydropyran-4-yl-ethyl]benzamide]
37 | 1900 | Cc1ncc(C(CNC(=O)c2c(F)cccc2Cl)C2CCOCC2)cn1 (stereo not drawn) [2-chloro-6-fluoro-N-[2-(2-methylpyrimidin-5-yl)-2-tetrahydropyran-4-yl-ethyl]benzamide]
38 | 1600 | O=C(NCC1(c2cnc(C(F)(F)F)nc2)CCOCC1)c1c(F)cccc1Cl [2-chloro-6-fluoro-N-[[4-[2-(trifluoromethyl)pyrimidin-5-yl]tetrahydropyran-4-yl]methyl]benzamide]
39 | 14 | O=C(NCC(CC1CC1)c1cnc(C(F)(F)F)nc1)c1cccc(F)c1Cl (stereo not drawn) [2-chloro-N-(3-cyclopropyl-2-(2-(trifluoromethyl)pyrimidin-5-] [2-chloro-N-(3-cyclopropyl-2-(2-(trifluoromethyl)pyrimidin-5-yl)propyl)-3-fluorobenzamide]
40 | 22 | O=C(NCC(CC1CC1)c1cnc(C(F)(F)F)nc1)c1c(F)cccc1Cl (stereo not drawn) [2-chloro-N-(3-cyclopropyl-2-(2-(trifluoromethyl)pyrimidin-5-] [2-chloro-N-(3-cyclopropyl-2-(2-(trifluoromethyl)pyrimidin-5-yl)propyl)-6-fluorobenzamide]
41 | 13 | O=C(NCC(CC1CC1)c1cnc(C(F)(F)F)nc1)c1ccccc1Cl (stereo not drawn) [2-chloro-N-(3-cyclopropyl-2-(2-(trifluoromethyl)pyrimidin-5-] [2-chloro-N-(3-cyclopropyl-2-(2-(trifluoromethyl)pyrimidin-5-yl)propyl)benzamide]
42 | 310 | O=C(NCC(CC1CC1)c1ccc(C(F)(F)F)nc1)c1ccc(F)cc1Cl (stereo not drawn) [2-chloro-N-(3-cyclopropyl-2-(6-(trifluoromethyl)pyridin-3-yl)propyl)-4-fluorobenzamide]
